In patent US8927297B2, “Methods to measure dissociation rates for ligands that form reversible covalent bonds” (Janssen Pharmaceutica N.V., priority 2009, dated 2015):

Target: T1, ERR-α (Homo sapiens, UniProt P11474)
T1 construct: made in house; host or cells: Spodoptera frugiperda (Sf9) insect cells, baculovirus
T1 sequence (P11474 with tags, fused parts or gaps): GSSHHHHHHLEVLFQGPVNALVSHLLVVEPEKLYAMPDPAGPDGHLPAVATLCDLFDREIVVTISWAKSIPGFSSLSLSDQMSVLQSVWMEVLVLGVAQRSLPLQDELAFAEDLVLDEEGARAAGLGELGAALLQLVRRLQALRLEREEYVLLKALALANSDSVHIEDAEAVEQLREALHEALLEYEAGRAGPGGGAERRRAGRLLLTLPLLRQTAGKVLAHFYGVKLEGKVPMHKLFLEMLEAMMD
Test: LC/MS kinetics of association and dissociation for ligands forming a covalent bond to Cys325 of ERR-α
Assay type: binding
Conditions: dissociation rate by LC/MS with 20-fold excess Compound 2 as competing ligand; 37° C.
Excerpt: The progress of the reaction was also expressed as a fraction of the area observed for the complex of ERR-α and the competing ligand over the sum of total area for the complex of ERR-α with the ligand and the complex of ERR-α with the competing ligand.
where k is the apparent rate constant.

Structure (SMILES) | kd
COc1cc(/C=C2\SC(=O)NC2=O)ccc1Oc1ccc(C#N)cc1C(F)(F)F [Compound 1] | 1.1e-05 s⁻¹
COc1cc(/C=C2\SC(N3CCN(C)CC3)=NC2=O)ccc1Oc1ccc(C#N)cc1C(F)(F)F [Compound 3] | 1.53e-05 s⁻¹
CN1CCN(C2=NC(=O)/C(=C/c3ccc(Oc4ccc(C#N)cc4C(F)(F)F)c(F)c3)S2)CC1 [Compound 4] | 2.19e-05 s⁻¹
COc1cc(/C=C2\SC(N)=NC2=O)ccc1Oc1ccc(C#N)cc1C(F)(F)F [Compound 5] | 2.05e-05 s⁻¹
